From ChEMBL document CHEMBL4507310, “Data for DCP probe A-1211212” (2021)
Calls of active or inactive are those of the source.

Assays:
[1] = molecular target: Inhibitor of nuclear factor kappa-B kinase subunit epsilon (Homo sapiens) (UniProt Q14164); details: Compound concentration 1000.0 nM
[2] = molecular target: Serine/threonine-protein kinase N2 (Homo sapiens) (UniProt Q16513); details: Compound concentration 1000.0 nM
[3] = molecular target: Type-2 angiotensin II receptor (Homo sapiens) (UniProt P50052); experiment: AT2 (h) Eurofins-Cerep binding assay; set-up: ligand concentration 0.01 nM; details: filed as agonist, Compound concentration 10.0 uM
[4] = molecular target: Serine/threonine-protein kinase 24 (Homo sapiens) (UniProt Q9Y6E0); details: Compound concentration 1000.0 nM
[5] = molecular target: NUAK family SNF1-like kinase 1 (Homo sapiens) (UniProt O60285); details: Compound concentration 1000.0 nM
[6] = molecular target: Tyrosine-protein kinase Fes/Fps (Homo sapiens) (UniProt P07332); details: Compound concentration 1000.0 nM
[7] = molecular target: Wee1-like protein kinase (Homo sapiens) (UniProt P30291); details: Compound concentration 1000.0 nM
[8] = molecular target: Wee1-like protein kinase 2 (Homo sapiens) (UniProt P0C1S8); details: Compound concentration 1000.0 nM
[9] = molecular target: Myosin light chain kinase (Homo sapiens) (UniProt Q32MK0); details: Compound concentration 1000.0 nM
[10] = molecular target: Atypical kinase COQ8A, mitochondrial (Homo sapiens) (UniProt Q8NI60); details: Compound concentration 1000.0 nM
Atypical kinase COQ8A, mitochondrial (Homo sapiens), sequence (Q8NI60 163-647 limits assumed): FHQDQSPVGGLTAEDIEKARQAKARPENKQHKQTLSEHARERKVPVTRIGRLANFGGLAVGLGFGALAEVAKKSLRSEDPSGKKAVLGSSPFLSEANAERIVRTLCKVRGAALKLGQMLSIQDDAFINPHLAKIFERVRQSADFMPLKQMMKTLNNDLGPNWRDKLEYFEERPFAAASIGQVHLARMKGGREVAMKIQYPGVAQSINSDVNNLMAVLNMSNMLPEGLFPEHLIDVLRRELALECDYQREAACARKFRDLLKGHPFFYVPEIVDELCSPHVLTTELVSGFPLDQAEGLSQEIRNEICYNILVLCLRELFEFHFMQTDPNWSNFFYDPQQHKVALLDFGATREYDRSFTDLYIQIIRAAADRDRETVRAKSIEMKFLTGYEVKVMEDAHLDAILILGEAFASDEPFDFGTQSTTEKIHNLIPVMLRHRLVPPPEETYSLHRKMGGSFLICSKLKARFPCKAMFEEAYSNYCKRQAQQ

[11] = molecular target: Phosphatidylinositol 4-phosphate 5-kinase type-1 gamma (Homo sapiens) (UniProt O60331); details: Compound concentration 1000.0 nM
[12] = molecular target: Serine/threonine-protein kinase 36 (Homo sapiens) (UniProt Q9NRP7); details: Compound concentration 1000.0 nM
Serine/threonine-protein kinase 36 (Homo sapiens), sequence (Q9NRP7 whole entry): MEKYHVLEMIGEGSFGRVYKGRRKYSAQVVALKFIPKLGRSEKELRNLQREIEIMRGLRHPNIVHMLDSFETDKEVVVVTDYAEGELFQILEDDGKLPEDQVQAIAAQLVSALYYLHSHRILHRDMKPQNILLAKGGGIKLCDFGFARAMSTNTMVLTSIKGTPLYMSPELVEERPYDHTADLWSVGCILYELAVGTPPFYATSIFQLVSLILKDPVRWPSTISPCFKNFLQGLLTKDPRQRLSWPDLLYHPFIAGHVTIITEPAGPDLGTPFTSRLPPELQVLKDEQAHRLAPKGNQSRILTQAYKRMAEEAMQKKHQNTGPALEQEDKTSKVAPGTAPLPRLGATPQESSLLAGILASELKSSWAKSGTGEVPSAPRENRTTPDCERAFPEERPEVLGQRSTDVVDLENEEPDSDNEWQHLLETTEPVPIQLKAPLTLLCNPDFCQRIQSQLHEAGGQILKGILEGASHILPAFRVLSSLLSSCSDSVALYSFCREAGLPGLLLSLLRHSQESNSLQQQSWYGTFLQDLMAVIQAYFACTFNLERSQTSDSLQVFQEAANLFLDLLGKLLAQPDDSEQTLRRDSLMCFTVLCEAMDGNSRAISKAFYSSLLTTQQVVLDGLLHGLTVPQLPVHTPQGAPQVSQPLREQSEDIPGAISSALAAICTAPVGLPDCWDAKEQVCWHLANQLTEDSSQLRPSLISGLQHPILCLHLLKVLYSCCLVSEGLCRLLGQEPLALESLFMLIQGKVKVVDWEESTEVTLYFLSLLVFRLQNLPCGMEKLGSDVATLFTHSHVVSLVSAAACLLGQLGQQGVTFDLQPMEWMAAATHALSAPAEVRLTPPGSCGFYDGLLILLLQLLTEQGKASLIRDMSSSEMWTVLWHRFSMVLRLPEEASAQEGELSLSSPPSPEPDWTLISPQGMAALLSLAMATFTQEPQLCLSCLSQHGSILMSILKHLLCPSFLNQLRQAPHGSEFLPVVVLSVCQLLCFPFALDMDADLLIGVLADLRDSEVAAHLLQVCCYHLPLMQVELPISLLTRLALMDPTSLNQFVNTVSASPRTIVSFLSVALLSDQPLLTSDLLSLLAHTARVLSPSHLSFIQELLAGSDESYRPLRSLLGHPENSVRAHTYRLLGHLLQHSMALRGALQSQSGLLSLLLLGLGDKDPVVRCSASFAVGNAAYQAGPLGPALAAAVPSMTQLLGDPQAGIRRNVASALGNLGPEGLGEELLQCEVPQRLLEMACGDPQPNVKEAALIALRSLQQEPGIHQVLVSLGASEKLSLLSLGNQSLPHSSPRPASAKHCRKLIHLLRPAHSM

[13] = molecular target: Sigma intracellular receptor 2 (Homo sapiens, UniProt Q5BJF2); details: Compound concentration 10.0 uM
[14] = molecular target: Mitogen-activated protein kinase kinase kinase 10 (Homo sapiens) (UniProt Q02779); details: Compound concentration 1000.0 nM
[15] = molecular target: MAP/microtubule affinity-regulating kinase 3 (Homo sapiens) (UniProt P27448); details: Compound concentration 1000.0 nM
[16] = molecular target: Calcium/calmodulin-dependent protein kinase type 1B (Homo sapiens) (UniProt Q6P2M8); details: Compound concentration 1000.0 nM
[17] = molecular target: Endothelin-1 receptor (Homo sapiens) (UniProt P25101); experiment: ETA (h) Eurofins-Cerep binding assay; set-up: ligand concentration 0.03 nM; details: filed as agonist, Compound concentration 10.0 uM
[18] = molecular target: Macrophage-stimulating protein receptor (Homo sapiens) (UniProt Q04912); details: Compound concentration 1000.0 nM
[19] = molecular target: Cyclin-dependent kinase 11B (Homo sapiens) (UniProt P21127); details: Compound concentration 1000.0 nM
[20] = molecular target: Ribosomal protein S6 kinase alpha-3 (Homo sapiens) (UniProt P51812); details: Compound concentration 1000.0 nM
[21] = molecular target: Ribosomal protein S6 kinase alpha-1 (Homo sapiens) (UniProt Q15418); details: Compound concentration 1000.0 nM
[22] = molecular target: Bone morphogenetic protein receptor type-2 (Homo sapiens) (UniProt Q13873); details: Compound concentration 1000.0 nM
[23] = molecular target: Ephrin type-B receptor 4 (Homo sapiens) (UniProt P54760); details: Compound concentration 1000.0 nM
Ephrin type-B receptor 4 (Homo sapiens), sequence (P54760 whole entry): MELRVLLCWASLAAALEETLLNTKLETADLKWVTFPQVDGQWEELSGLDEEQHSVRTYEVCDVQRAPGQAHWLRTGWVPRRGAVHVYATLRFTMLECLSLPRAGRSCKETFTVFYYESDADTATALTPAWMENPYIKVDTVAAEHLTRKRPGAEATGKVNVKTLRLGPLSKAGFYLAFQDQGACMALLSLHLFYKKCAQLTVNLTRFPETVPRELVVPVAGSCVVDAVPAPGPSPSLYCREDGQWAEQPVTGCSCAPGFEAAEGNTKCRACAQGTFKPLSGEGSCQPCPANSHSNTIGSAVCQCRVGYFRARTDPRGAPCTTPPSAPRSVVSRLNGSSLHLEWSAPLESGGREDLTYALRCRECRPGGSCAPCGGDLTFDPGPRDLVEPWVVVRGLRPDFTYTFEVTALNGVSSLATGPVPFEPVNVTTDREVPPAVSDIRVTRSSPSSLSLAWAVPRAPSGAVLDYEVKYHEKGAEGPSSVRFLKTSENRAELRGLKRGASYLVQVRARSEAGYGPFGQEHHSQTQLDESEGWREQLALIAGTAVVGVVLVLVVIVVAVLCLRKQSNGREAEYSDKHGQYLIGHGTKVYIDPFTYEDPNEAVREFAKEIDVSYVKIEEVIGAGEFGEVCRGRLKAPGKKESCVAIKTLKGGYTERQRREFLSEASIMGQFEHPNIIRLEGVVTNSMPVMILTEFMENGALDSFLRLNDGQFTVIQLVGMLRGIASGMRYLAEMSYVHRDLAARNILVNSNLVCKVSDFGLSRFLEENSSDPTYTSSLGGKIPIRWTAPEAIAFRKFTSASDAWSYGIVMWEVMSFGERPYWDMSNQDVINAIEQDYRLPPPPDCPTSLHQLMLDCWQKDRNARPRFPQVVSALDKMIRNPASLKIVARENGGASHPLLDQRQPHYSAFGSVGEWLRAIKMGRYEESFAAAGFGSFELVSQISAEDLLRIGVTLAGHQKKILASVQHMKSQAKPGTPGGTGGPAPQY

[24] = molecular target: Interleukin-1 receptor-associated kinase 4 (Homo sapiens) (UniProt Q9NWZ3); details: Compound concentration 1000.0 nM
[25] = molecular target: Serine/threonine-protein kinase Chk1 (Homo sapiens) (UniProt O14757); details: Compound concentration 1000.0 nM
[26] = molecular target: SRSF protein kinase 2 (Homo sapiens) (UniProt P78362); details: Compound concentration 1000.0 nM
[27] = molecular target: Serine/threonine-protein kinase NIM1 (Homo sapiens) (UniProt Q8IY84); details: Compound concentration 1000.0 nM
[28] = molecular target: Histamine H4 receptor (Homo sapiens) (UniProt Q9H3N8); details: Compound concentration 10.0 uM
Histamine H4 receptor (Homo sapiens), sequence (Q9H3N8 whole entry): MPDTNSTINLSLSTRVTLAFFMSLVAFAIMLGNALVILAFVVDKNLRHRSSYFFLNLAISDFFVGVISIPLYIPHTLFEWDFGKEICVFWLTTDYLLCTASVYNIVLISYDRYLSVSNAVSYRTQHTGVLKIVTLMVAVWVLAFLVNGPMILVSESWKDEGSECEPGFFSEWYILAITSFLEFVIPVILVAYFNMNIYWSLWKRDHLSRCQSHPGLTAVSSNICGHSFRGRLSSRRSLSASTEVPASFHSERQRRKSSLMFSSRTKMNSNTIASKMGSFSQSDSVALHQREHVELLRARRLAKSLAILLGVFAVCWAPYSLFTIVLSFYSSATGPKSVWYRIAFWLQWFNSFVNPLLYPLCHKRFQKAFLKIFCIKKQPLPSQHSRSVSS

[29] = molecular target: Proto-oncogene tyrosine-protein kinase ROS (Homo sapiens) (UniProt P08922); details: Compound concentration 1000.0 nM
[30] = molecular target: Mitogen-activated protein kinase 10 (Homo sapiens) (UniProt P53779); details: Compound concentration 1000.0 nM
[31] = molecular target: Mitogen-activated protein kinase 14 (Homo sapiens) (UniProt Q16539); details: Compound concentration 1000.0 nM
[32] = molecular target: cAMP-dependent protein kinase catalytic subunit alpha (Homo sapiens) (UniProt P17612); details: Compound concentration 1000.0 nM
[33] = molecular target: Androgen receptor (Homo sapiens) (UniProt P10275); experiment: AR (h) Eurofins-Cerep binding assay; set-up: ligand concentration 1 nM; details: filed as agonist, Compound concentration 10.0 uM
[34] = molecular target: Dual specificity tyrosine-phosphorylation-regulated kinase 1B (Homo sapiens) (UniProt Q9Y463); details: Compound concentration 1000.0 nM
[35] = molecular target: Transient receptor potential cation channel subfamily M member 6 (Homo sapiens) (UniProt Q9BX84); details: Compound concentration 1000.0 nM
[36] = molecular target: Casein kinase I isoform gamma-1 (Homo sapiens) (UniProt Q9HCP0); details: Compound concentration 1000.0 nM
Casein kinase I isoform gamma-1 (Homo sapiens), sequence (Q9HCP0 whole entry, looked up, canonical isoform): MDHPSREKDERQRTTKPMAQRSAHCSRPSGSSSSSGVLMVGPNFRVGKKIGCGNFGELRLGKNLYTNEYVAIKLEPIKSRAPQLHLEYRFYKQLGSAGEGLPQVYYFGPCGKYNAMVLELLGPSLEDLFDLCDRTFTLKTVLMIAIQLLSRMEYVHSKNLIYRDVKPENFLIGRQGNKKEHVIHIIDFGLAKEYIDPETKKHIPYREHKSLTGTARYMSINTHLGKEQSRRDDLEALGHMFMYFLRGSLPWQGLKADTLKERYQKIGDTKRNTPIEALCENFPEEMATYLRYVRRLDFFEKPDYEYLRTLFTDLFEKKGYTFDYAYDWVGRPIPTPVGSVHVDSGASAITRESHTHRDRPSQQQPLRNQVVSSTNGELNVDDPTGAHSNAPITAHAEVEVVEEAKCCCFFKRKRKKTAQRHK

[37] = test system: Epidermal growth factor receptor (Homo sapiens), P00533 [L861Q]; details: Compound concentration 1000.0 nM
[38] = molecular target: cGMP-inhibited 3',5'-cyclic phosphodiesterase 3A (Homo sapiens) (UniProt Q14432); experiment: PDE3A (h) Eurofins-Cerep enzyme and uptake assay; details: Compound concentration 10.0 uM
[39] = molecular target: 5-hydroxytryptamine receptor 7 (Homo sapiens) (UniProt P34969); experiment: 5-HT7 (h) Eurofins-Cerep binding assay; set-up: ligand concentration 4 nM; details: filed as agonist, Compound concentration 10.0 uM
[40] = molecular target: Apoptosis regulator Bcl-2 (Homo sapiens, UniProt P10415); experiment: Time-resolved fluorescence energy transfer (TR-FRET) with BCL2
Apoptosis regulator Bcl-2, sequence (P10415 whole entry): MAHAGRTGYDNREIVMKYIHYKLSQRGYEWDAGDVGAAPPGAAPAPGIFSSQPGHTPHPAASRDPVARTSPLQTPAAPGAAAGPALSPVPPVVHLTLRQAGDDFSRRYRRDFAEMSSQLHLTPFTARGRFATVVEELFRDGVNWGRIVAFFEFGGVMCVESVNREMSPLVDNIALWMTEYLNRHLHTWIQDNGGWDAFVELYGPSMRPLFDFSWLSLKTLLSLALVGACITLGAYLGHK

[41] = molecular target: Peroxisome proliferator-activated receptor gamma (Homo sapiens) (UniProt P37231); experiment: PPARgamma (h) Eurofins-Cerep binding assay; set-up: ligand concentration 5 nM; details: filed as agonist, Compound concentration 10.0 uM
[42] = molecular target: Cyclin-dependent kinase 16 (Homo sapiens) (UniProt Q00536); details: Compound concentration 1000.0 nM
[43] = molecular target: Serine/threonine-protein kinase 32B (Homo sapiens) (UniProt Q9NY57); details: Compound concentration 1000.0 nM
[44] = molecular target: Macrophage colony-stimulating factor 1 receptor (Homo sapiens) (UniProt P07333); details: Compound concentration 1000.0 nM
[45] = molecular target: Sigma non-opioid intracellular receptor 1 (Homo sapiens) (UniProt Q99720); experiment: sigma (non-selective) (h) Eurofins-Cerep binding assay; set-up: ligand concentration 10 nM; details: filed as agonist, Compound concentration 10.0 uM
Sigma non-opioid intracellular receptor 1 (Homo sapiens), sequence (Q99720 whole entry): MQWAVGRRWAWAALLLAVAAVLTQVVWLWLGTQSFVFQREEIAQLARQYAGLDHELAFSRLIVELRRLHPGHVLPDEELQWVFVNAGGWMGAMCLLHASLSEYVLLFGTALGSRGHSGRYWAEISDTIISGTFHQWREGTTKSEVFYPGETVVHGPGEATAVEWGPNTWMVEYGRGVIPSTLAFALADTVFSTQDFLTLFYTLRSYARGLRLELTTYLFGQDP

[46] = molecular target: Serine/threonine-protein kinase mTOR (Homo sapiens) (UniProt P42345); details: Compound concentration 1000.0 nM

Serine/threonine-protein kinase N2 (Homo sapiens), sequence (Q16513 whole entry, looked up): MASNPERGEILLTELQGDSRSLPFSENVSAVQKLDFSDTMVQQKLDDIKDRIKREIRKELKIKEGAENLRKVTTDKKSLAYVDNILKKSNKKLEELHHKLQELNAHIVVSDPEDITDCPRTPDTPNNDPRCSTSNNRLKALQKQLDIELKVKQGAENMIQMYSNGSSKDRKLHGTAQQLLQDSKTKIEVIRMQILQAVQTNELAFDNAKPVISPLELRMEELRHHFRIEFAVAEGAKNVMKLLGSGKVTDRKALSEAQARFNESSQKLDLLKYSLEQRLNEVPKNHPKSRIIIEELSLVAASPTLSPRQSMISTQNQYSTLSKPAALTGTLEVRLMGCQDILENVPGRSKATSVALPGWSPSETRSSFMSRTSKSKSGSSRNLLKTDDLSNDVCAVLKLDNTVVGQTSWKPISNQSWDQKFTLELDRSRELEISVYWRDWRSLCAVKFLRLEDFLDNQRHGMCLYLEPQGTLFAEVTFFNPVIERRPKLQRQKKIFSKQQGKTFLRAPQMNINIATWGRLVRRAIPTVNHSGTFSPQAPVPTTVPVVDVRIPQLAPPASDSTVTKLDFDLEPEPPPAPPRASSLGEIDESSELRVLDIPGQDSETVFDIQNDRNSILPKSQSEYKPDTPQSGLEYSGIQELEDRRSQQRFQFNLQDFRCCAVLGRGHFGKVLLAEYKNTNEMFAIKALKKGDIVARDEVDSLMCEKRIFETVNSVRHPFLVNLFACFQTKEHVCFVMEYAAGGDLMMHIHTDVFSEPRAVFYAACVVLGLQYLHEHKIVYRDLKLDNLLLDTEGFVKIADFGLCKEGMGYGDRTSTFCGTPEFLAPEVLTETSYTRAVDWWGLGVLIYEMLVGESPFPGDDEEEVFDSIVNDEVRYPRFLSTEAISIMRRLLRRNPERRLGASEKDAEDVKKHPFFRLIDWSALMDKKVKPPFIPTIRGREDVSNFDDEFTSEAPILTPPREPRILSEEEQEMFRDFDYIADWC

O=C(NS(=O)(=O)c1ccc(NCC2CCOCC2)c([N+](=O)[O-])c1)c1ccc(N2CCN(Cc3ccc(C(F)(F)F)cc3-c3ccc(Cl)cc3)CC2)cc1Oc1cnc2[nH]ccc2c1 [A-1210227]
9.3%: % Inhibition of Control Specific Binding (Mean n=2) [41]
active: inhibition [13] 54.3% | residual activity [16] 0%
296 nM (not active): IC50 [40]
-7.6%: % Inhibition of Control Specific Binding (Mean n=2) [17]
-104%: % Inhibition of Control Specific Binding (Mean n=2) [45]
10.2%: % Inhibition of Control Specific Binding (Mean n=2) [39]
inactive: residual activity [1] 65% | residual activity [2] 93% | residual activity [4] 100% | residual activity [5] 98% | residual activity [6] 100% | residual activity [7] 100% | residual activity [8] 100% | residual activity [9] 100% | residual activity [10] 100% | residual activity [11] 100% | residual activity [12] 88% | residual activity [14] 95% | residual activity [15] 100% | residual activity [18] 96% | residual activity [19] 97% | residual activity [20] 100% | residual activity [21] 95% | residual activity [22] 100% | residual activity [23] 100% | residual activity [24] 85% | residual activity [25] 100% | residual activity [26] 100% | residual activity [27] 94% | inhibition [28] -2.4% | residual activity [29] 87% | residual activity [30] 82% | residual activity [31] 97% | residual activity [32] 76% | residual activity [34] 80% | residual activity [35] 89% | residual activity [36] 95% | residual activity [37] 93% | residual activity [42] 67% | residual activity [43] 100% | residual activity [44] 100% | residual activity [46] 100%
6%: % Inhibition of Control Values (Mean n=2) [38]
-0.7%: % Inhibition of Control Specific Binding (Mean n=2) [33]
5.3%: % Inhibition of Control Specific Binding (Mean n=2) [3]

CO[C@H]1CC[C@H](CNc2ccc(S(=O)(=O)NC(=O)c3ccc(N4CCN(CC5=C(c6ccc(Cl)cc6)CC(C)(C)CC5)CC4)cc3Oc3cnc4[nH]ccc4c3)cc2[N+](=O)[O-])CC1 [A-1211212]
4.9%: % Inhibition of Control Values (Mean n=2) [38]
22.4%: % Inhibition of Control Specific Binding (Mean n=2) [45]
active: inhibition [13] 60.7% | IC50 [40] 1.4 nM
inactive: residual activity [1] 100% | residual activity [2] 97% | residual activity [4] 75% | residual activity [5] 100% | residual activity [6] 100% | residual activity [7] 100% | residual activity [8] 81% | residual activity [9] 100% | residual activity [10] 99% | residual activity [11] 100% | residual activity [12] 71% | residual activity [14] 89% | residual activity [15] 96% | residual activity [16] 81% | residual activity [18] 92% | residual activity [19] 98% | residual activity [20] 71% | residual activity [21] 69% | residual activity [22] 100% | residual activity [23] 100% | residual activity [24] 83% | residual activity [25] 90% | residual activity [26] 55% | residual activity [27] 90% | inhibition [28] 4.94% | residual activity [29] 72% | residual activity [30] 77% | residual activity [31] 83% | residual activity [32] 78% | residual activity [34] 71% | residual activity [35] 87% | residual activity [36] 100% | residual activity [37] 70% | residual activity [42] 61% | residual activity [43] 100% | residual activity [44] 86% | residual activity [46] 50%
4.7%: % Inhibition of Control Specific Binding (Mean n=2) [3]
2.5%: % Inhibition of Control Specific Binding (Mean n=2) [17]
28.5%: % Inhibition of Control Specific Binding (Mean n=2) [41]
-8.6%: % Inhibition of Control Specific Binding (Mean n=2) [33]
11.4%: % Inhibition of Control Specific Binding (Mean n=2) [39]
